# Tested on: human skin
# Assay: Cumulative skin irritation patch test (safety to the human skin)
# Assay type: in vivo
# Conditions: 30 adults; for Number of subjects showing response ±: 1st week
# Procedure: In order to identify as to whether the Cirsium japonicum extract is safe or not, a test for identifying the safety to the human skin was performed. For this, a cumulative skin irritation was carried out. A nutritious cream containing 0.1%, 0.5% and 1% of Cirsium japonicum extracts of Example 1, respectively, was prepared. Specifically, purified water, triethanolamine, and propylene glycol were heated and dissolved at a temperature of 70° C. (aqueous phase). Beeswax, liquid paraffin, oily ingredients, emulsifiers and preservatives were heated and dissolved at a temperature of 70° C. (oil phase). The oil phase was added to the aqueous phase to prepare an emulsion. After emulsification was completed, the solution was cooled to 45° C., and Cirsium japonicum extracts were added 0.1%, 0.5% and 1% respectively, dispersed and then cooled to 30° C. As the content of the Cirsium japonicum extract was increased to 0.1%, 0.5% and 1%, the nutritional cream was prepared by reducing the content of the liquid paraffin to 9.91%, 9.51% and 9.01%, respectively. The nourishing cream prepared as described above was applied as a patch to areas of humerus of 30 adults for accumulated 24 hours on alternate day in total 9 times to test as to whether the Cirsium japonicum extract stimulates the skin. The patch used Finn chamber ([…]) and the patch was practiced after dropping with […] of the skin external preparations prepared from the above, respectively. The degree of the reaction represented on the skin in every time was scored by using the below experimental formula 1. Mean reaction degree=[{(reaction index×reaction degree)/(total number of the subject×the highest score (four point))}×100]/times of the test (9times) [Experimental Formula 1] In regard to the response degree, 1 point was provided for ±, 2 points for +, and 4 points for ++. When the mean reaction degree is less than 3, it is considered as being the safe composition.
smiles,measurement,setting,value
"CC(C)=CCC/C(C)=C/CC/C(C)=C/CC/C=C(\C)CC/C=C(\C)CCC=C(C)C [Control group (Squalene), Squalene]",Number of subjects showing response ±,1st application,1
same,Number of subjects showing response ±,2nd application,0
same,Average response degree,"24 h patch on alternate days, 9 times, less than 3 = safe",0.09

# From patent publication US12303588B2, “Composition containing Cirsium japonicum extract as active ingredient for stimulating melanogenesis” (BIOSPECTRUM, INC., priority 2017, dated 2025)
